In ChEMBL document CHEMBL4308825, “Positive and Negative Allosteric Modulators of N-Methyl-d-aspartate (NMDA) Receptors: Structure-Activity Relationships and Mechanisms of Action” (J Med Chem, 2018) one finds EC50, IC50 and Ratio IC50 data, which are given here for 21 compounds.

The target in experiment [1] is T1, Glutamate receptor ionotropic, NMDA 2D (Homo sapiens, UniProt O15399+Q05586). The experiment in a line: Positive allosteric modulation of GluN2D receptor (unknown origin) expressed in xenopus laevis oocytes assessed as increase in glycine-induced channel current by two electrode voltage clamp method. In kind it is cell-based.
T1 sequence (O15399 whole entry, one chain of several): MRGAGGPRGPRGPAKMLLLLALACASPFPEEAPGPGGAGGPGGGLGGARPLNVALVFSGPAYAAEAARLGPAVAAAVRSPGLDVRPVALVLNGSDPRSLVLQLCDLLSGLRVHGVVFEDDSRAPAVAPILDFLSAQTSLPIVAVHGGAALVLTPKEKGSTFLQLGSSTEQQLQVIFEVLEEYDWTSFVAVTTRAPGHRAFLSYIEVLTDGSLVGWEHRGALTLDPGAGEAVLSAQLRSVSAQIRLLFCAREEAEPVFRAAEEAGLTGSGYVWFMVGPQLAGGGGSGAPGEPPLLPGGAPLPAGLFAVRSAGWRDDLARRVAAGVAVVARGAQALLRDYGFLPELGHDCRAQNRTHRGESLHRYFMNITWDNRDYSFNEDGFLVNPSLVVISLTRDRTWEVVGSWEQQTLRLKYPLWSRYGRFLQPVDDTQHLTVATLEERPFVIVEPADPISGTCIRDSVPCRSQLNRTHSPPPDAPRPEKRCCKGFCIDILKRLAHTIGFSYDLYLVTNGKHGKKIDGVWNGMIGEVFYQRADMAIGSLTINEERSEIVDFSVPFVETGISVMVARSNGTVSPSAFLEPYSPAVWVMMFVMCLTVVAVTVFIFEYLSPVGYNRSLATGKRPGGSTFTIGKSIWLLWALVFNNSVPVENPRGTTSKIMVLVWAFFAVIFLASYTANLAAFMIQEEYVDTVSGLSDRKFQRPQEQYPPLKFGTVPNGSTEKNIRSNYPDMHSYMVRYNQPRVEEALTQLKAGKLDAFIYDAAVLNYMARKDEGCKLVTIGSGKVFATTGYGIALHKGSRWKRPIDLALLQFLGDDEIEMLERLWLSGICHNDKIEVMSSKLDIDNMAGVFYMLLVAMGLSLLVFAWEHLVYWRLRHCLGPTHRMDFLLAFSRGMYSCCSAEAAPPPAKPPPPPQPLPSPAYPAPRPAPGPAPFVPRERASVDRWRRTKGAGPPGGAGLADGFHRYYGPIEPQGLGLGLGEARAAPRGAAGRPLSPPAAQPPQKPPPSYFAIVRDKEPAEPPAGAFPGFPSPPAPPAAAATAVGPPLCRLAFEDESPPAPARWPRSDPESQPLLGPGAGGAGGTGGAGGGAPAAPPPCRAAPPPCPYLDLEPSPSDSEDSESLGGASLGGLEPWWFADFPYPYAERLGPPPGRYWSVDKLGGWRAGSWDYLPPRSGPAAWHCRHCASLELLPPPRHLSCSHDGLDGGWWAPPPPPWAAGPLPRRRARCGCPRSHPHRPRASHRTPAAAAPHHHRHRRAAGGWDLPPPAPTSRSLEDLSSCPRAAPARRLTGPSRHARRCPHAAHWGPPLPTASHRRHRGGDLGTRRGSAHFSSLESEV
Experiment [2] has as its target T2, Glutamate receptor ionotropic, NMDA 2A (Homo sapiens, UniProt Q05586+Q12879). The experiment in a line: Positive allosteric modulation of GluN2A receptor (unknown origin) expressed in xenopus laevis oocytes assessed as increase in glycine-induced channel current by two electrode voltage clamp method. In kind it is cell-based.
The target of experiment [3] is T3, Glutamate receptor ionotropic, NMDA 2B (Homo sapiens, UniProt Q05586+Q13224). Description: Positive allosteric modulation of GluN2B receptor (unknown origin) expressed in xenopus laevis oocytes assessed as increase in glycine-induced channel current by two electrode voltage clamp method. In kind it is cell-based.
T3 sequence (Q13224 whole entry, one chain of several): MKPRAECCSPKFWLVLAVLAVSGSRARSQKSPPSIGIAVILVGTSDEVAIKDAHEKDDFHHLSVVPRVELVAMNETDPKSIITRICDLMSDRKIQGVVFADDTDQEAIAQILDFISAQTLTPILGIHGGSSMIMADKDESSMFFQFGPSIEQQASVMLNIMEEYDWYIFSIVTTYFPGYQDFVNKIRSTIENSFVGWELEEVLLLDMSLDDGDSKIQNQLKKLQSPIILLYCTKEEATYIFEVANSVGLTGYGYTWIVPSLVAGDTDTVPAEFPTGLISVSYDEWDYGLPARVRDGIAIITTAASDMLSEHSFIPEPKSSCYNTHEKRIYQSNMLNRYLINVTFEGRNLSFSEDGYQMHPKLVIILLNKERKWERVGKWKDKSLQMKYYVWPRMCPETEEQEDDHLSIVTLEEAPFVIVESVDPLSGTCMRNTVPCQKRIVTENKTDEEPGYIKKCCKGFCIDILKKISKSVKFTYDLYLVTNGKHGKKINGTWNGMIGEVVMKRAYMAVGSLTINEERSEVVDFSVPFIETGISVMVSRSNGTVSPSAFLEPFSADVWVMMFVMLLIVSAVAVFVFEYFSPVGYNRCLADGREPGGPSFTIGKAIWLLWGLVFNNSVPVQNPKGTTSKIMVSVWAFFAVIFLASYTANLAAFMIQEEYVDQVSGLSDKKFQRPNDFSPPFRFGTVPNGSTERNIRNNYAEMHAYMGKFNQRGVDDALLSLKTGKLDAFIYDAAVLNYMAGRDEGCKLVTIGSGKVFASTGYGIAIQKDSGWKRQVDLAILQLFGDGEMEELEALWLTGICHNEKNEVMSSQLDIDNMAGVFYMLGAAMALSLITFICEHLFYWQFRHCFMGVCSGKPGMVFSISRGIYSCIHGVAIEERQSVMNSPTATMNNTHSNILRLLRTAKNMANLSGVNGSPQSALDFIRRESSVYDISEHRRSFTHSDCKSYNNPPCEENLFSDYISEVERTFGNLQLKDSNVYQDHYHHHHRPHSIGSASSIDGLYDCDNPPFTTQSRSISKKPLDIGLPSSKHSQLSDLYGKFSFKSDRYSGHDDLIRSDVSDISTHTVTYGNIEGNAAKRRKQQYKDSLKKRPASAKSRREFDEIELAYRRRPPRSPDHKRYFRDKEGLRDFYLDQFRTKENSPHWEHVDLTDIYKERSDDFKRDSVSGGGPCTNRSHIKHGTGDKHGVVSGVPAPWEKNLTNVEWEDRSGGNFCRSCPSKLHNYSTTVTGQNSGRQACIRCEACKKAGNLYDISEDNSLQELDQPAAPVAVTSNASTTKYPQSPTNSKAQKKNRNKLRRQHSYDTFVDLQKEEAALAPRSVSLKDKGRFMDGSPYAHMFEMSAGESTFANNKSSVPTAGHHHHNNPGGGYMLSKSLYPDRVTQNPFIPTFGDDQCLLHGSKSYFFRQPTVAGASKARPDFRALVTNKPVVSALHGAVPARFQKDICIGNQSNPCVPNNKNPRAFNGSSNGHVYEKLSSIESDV
For experiment [4], the target named is T4, Glutamate receptor ionotropic, NMDA 2C (Homo sapiens, UniProt Q05586+Q14957). The experiment in a line: Positive allosteric modulation of GluN2C receptor (unknown origin) expressed in xenopus laevis oocytes assessed as increase in glycine-induced channel current by two electrode voltage clamp method. In kind it is cell-based.
T4 sequence (Q14957 whole entry, one chain of several): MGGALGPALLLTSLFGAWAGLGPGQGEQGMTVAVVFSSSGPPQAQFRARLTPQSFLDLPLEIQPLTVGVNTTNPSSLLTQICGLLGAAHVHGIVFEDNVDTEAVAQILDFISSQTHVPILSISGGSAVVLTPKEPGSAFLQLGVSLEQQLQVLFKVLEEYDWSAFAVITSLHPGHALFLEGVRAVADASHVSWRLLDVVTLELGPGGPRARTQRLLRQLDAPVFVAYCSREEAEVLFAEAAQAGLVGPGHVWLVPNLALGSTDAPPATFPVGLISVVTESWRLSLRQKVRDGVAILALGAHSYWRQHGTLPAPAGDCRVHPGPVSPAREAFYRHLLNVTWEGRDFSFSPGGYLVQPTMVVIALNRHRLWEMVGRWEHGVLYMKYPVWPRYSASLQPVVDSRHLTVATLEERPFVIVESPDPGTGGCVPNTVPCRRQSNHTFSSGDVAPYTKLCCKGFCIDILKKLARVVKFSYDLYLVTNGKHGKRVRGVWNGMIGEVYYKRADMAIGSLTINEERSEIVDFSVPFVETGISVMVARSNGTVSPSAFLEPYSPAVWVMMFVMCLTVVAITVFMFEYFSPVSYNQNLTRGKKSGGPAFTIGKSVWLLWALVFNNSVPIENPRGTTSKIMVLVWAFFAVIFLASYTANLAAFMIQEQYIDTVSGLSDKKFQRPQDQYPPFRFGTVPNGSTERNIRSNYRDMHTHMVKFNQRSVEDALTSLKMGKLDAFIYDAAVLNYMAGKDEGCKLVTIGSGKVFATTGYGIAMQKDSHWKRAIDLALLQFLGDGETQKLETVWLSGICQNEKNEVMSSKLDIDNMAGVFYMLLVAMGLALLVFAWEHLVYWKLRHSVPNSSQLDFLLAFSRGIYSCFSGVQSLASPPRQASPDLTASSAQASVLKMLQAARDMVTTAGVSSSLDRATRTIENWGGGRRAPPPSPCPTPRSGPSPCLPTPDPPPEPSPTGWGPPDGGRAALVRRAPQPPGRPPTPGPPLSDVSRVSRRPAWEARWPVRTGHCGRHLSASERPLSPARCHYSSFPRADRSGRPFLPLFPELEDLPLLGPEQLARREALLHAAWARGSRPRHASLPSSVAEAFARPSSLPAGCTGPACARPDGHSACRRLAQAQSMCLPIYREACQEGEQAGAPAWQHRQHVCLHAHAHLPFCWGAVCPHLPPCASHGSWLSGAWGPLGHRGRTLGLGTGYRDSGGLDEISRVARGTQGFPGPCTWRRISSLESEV
In experiment [5] the target is T2, Glutamate receptor ionotropic, NMDA 2A. The experiment in a line: Negative allosteric modulation of GluN2A receptor (unknown origin) expressed in xenopus laevis oocytes assessed as reduction in glycine-induced channel current by two electrode voltage clamp method. In kind it is cell-based.
The target of experiment [6] is T3, Glutamate receptor ionotropic, NMDA 2B. The experiment in a line: Negative allosteric modulation of GluN2B receptor (unknown origin) expressed in xenopus laevis oocytes assessed as reduction in glycine-induced channel current by two electrode voltage clamp method. In kind it is cell-based.
Experiment [7] concerns the target T4, Glutamate receptor ionotropic, NMDA 2C. The experiment in a line: Negative allosteric modulation of GluN2C receptor (unknown origin) expressed in xenopus laevis oocytes assessed as reduction in glycine-induced channel current by two electrode voltage clamp method. In kind it is cell-based.
Experiment [8] has as its target T1, Glutamate receptor ionotropic, NMDA 2D. The experiment in a line: Negative allosteric modulation of GluN2D receptor (unknown origin) expressed in xenopus laevis oocytes assessed as reduction in glycine-induced channel current by two electrode voltage clamp method. In kind it is cell-based.
Experiment [9] addresses T2, Glutamate receptor ionotropic, NMDA 2A. The experiment in a line: Positive allosteric modulation of EGFP-fused human GluN2A receptor expressed in HEK293T cells assessed as increase in glycine-induced channel current by two electrode voltage clamp method. In kind it is cell-based.
For experiment [10], the target named is T3, Glutamate receptor ionotropic, NMDA 2B. The experiment in a line: Positive allosteric modulation of EGFP-fused human GluN2B receptor expressed in HEK293T cells assessed as increase in glycine-induced channel current by two electrode voltage clamp method. In kind it is cell-based.
The target in experiment [11] is T4, Glutamate receptor ionotropic, NMDA 2C. The experiment in a line: Positive allosteric modulation of EGFP-fused human GluN2C receptor expressed in HEK293T cells assessed as increase in glycine-induced channel current by two electrode voltage clamp method. In kind it is cell-based.
Experiment [12] deals with T1, Glutamate receptor ionotropic, NMDA 2D. Description: Positive allosteric modulation of EGFP-fused human GluN2D receptor expressed in HEK293T cells assessed as increase in glycine-induced channel current by two electrode voltage clamp method. In kind it is cell-based.
Experiment [13] concerns the target Glutamate NMDA receptor; GRIN1/GRIN2A (Homo sapiens, UniProt Q05586+Q12879). The experiment in a line: Negative allosteric modulation of GluN1a/GluN2A receptor (unknown origin) expressed in xenopus laevis oocytes assessed as reduction in glutamate/glycine-induced channel current at -60 mV holding potential by two electrode voltage clamp method. In kind it is cell-based.

Experiment [14] deals with Glutamate NMDA receptor; GRIN1/GRIN2B (Homo sapiens, UniProt Q05586+Q13224). The experiment in a line: Negative allosteric modulation of GluN1a/GluN2B receptor (unknown origin) expressed in xenopus laevis oocytes assessed as reduction in glutamate/glycine-induced channel current at -60 mV holding potential by two electrode voltage clamp method. In kind it is cell-based.

The target in experiment [15] is Ionotropic glutamate receptor NMDA 1/2C (Homo sapiens, UniProt Q05586+Q14957). The experiment in a line: Negative allosteric modulation of GluN1a/GluN2C receptor (unknown origin) expressed in xenopus laevis oocytes assessed as reduction in glutamate/glycine-induced channel current at -60 mV holding potential by two electrode voltage clamp method. In kind it is cell-based.
Sequence of Ionotropic glutamate receptor NMDA 1/2C (Q14957 whole entry, other chains not shown): as the sequence (Q14957 whole entry, one chain of several) above

The target of experiment [16] is Ionotropic glutamate receptor NMDA 1/2D (Homo sapiens, UniProt O15399+Q05586). Description: Negative allosteric modulation of GluN1a/GluN2D receptor (unknown origin) expressed in xenopus laevis oocytes assessed as reduction in glutamate/glycine-induced channel current at -60 mV holding potential by two electrode voltage clamp method. In kind it is cell-based.
Sequence of Ionotropic glutamate receptor NMDA 1/2D (O15399 whole entry, other chains not shown): as the sequence (O15399 whole entry, one chain of several) above
For experiment [17], the species on record is Homo sapiens. Description: Selectivity ratio of IC50 for GluN2B receptor (unknown origin) expressed in xenopus laevis oocytes to IC50 for GluN2C receptor (unknown origin) expressed in xenopus laevis oocytes. In kind it is cell-based.
Experiment [18] is filed under the species Homo sapiens. The experiment in a line: Selectivity ratio of IC50 for GluN2A receptor (unknown origin) expressed in xenopus laevis oocytes to IC50 for GluN2C receptor (unknown origin) expressed in xenopus laevis oocytes. In kind it is cell-based.
For experiment [19], the species on record is Homo sapiens. Description: Selectivity ratio of IC50 for GluN2B receptor (unknown origin) expressed in xenopus laevis oocytes to IC50 for GluN2D receptor (unknown origin) expressed in xenopus laevis oocytes. In kind it is cell-based.
For experiment [20], the species on record is Homo sapiens. Description: Selectivity ratio of IC50 for GluN2A receptor (unknown origin) expressed in xenopus laevis oocytes to IC50 for GluN2D receptor (unknown origin) expressed in xenopus laevis oocytes. In kind it is cell-based.
Experiment [21] deals with T2, Glutamate receptor ionotropic, NMDA 2A. Description: Negative allosteric modulation of human GluN2A receptor expressed in xenopus laevis oocytes assessed as reduction in 3 uM glycine-induced channel current at -40 mV holding potential by two electrode voltage clamp method. In kind it is cell-based.
In experiment [22] the target is T4, Glutamate receptor ionotropic, NMDA 2C. The experiment in a line: Negative allosteric modulation of human GluN2C receptor expressed in xenopus laevis oocytes assessed as reduction in 3 uM glycine-induced channel current at -40 mV holding potential by two electrode voltage clamp method. In kind it is cell-based.
The target of experiment [23] is T1, Glutamate receptor ionotropic, NMDA 2D. The experiment in a line: Negative allosteric modulation of human GluN2D receptor expressed in xenopus laevis oocytes assessed as reduction in 3 uM glycine-induced channel current at -40 mV holding potential by two electrode voltage clamp method. In kind it is cell-based.
The target of experiment [24] is T2, Glutamate receptor ionotropic, NMDA 2A. The experiment in a line: Positive allosteric modulation of GluN2A receptor (unknown origin) expressed in HEK cell assessed as increase in glycine-induced calcium influx.
Experiment [25] addresses Glutamate receptor ionotropic, NMDA 2B (Rattus norvegicus, UniProt Q00960). The experiment in a line: Positive allosteric modulation of GluN2B receptor in rat spinal cord neurons assessed as increase in glycine-induced channel current by two electrode voltage clamp method.
The target in experiment [26] is Glutamate receptor ionotropic, NMDA 2B (Homo sapiens, UniProt Q13224). Description: Positive allosteric modulation of GluN2B receptor (unknown origin) in hippocampal neurons assessed as increase in glycine-induced channel current by two electrode voltage clamp method.
The target of experiment [27] is T1, Glutamate receptor ionotropic, NMDA 2D. Description: Negative allosteric modulation of human GluN2D receptor expressed in HEK cells assessed as reduction in glycine/glutamate-induced intracellular calcium flux preincubated for 5 mins followed by glycine/glutamate addition by Fluo-4-AM dye based FLIPR assay. In kind it is cell-based.

A value given as a limit tells only on which side of the number the result lay.

Consider `COc1ccc(OCC2c3cc(OC)c(OC)cc3CCN2C(=O)c2cccc(Cl)c2)cc1` (stereo unspecified), for which the EC50 in experiment [1] was 2.8 µM; in [2], > 10 µM; in [3] it was > 10 µM; in experiment [4], 2.7 µM.

On to `CC(=O)[C@H]1CC[C@H]2[C@@H]3CC[C@@H]4C[C@H](OS(=O)(=O)O)CC[C@]4(C)[C@H]3CC[C@]12C`, for which the IC50 was determined as 62 µM in experiment [5], 38 µM in [6], 12 µM in experiment [7] and 14 µM in experiment [8].

As to `O=C(O)CCC(=O)N1N=C(c2c(-c3ccccc3)c3cc(Br)ccc3[nH]c2=O)CC1c1ccc(Br)cc1` (stereo unspecified), the IC50 came out at 78 µM in [5], 19 µM in [6], 5.4 µM in experiment [7] and 2.7 µM in experiment [8].

Regarding `COC(=O)c1ccc(C2C(C(C)=O)=C(O)C(=O)N2CCc2c(C)[nH]c3ccccc23)cc1` (stereo unspecified), the EC50 in experiment [4] was determined as 13 µM.

Turning to `CC(=O)[C@H]1CC[C@H]2[C@@H]3CC=C4C[C@@H](OS(=O)(=O)O)CC[C@]4(C)[C@H]3CC[C@]12C`, the concentration for half-maximal inhibition (IC50) in experiment [7] came to 112 µM; in experiment [8] it was 118 µM. Besides, the EC50 in [2] turned out to be 21 µM; in [3], 33 µM; in experiment [9], 34 µM; in experiment [10] it was 63 µM; in experiment [11] it was 83 µM; in [12], 78 µM.

With `O=C(O)c1cc2cc(Br)ccc2oc1=O`, the IC50 in [5] stood at 18.6 µM; in experiment [13], 19 µM; in [14] it was 90 µM; in [15] it was 68 µM; in experiment [16] it was 426 µM.

For the compound `COc1ccc2nc(/C=C/c3cccc([N+](=O)[O-])c3)n(-c3ccc(C(=O)O)cc3)c(=O)c2c1`, the IC50 in experiment [5] stood at 182 µM; in experiment [6], 193 µM; in experiment [7], 7.1 µM; in experiment [8] it was 3.9 µM.

For the compound `CCN(CC)C(=S)Oc1ccc(C(=O)Nc2cccc3ccccc23)cc1`, the IC50 in experiment [7] amounted to 2.6 µM; in [8] it was 1.4 µM. For the same compound, the Ratio IC50 in [17], in [18], in experiment [19] and in experiment [20] was > 400 each time.

With `C[C@@H](CN1CCC(Cc2ccccc2)CC1)[C@@H](O)c1ccc(O)cc1`, the IC50 worked out at 52 µM in [5] and 0.009 µM in [6].

Turning to `O=C(O)c1cc2cccc(O)c2cc1O`, the IC50 in experiment [5] stood at 9.7 µM; in experiment [6], 9.4 µM; in experiment [7], 15 µM. For the same compound, the concentration giving a half-maximal response (EC50) in experiment [1] worked out at 10 µM.

On to `CC(C)CCCc1ccc2cc(C(=O)O)ccc2c1`, for which the concentration giving a half-maximal response (EC50) in [1] stood at 29 µM; in experiment [2], 28 µM; in [3] it was 34 µM; in experiment [4], 37 µM.

Consider `CCCc1nc2[nH]c(C)c(NS(=O)(=O)c3ccc(C4CCCCC4)cc3)c(=O)n2n1`, for which the concentration giving a half-maximal response (EC50) in experiment [1] was found to be 6.7 µM; in experiment [2], 3.2 µM; in experiment [3], 15.7 µM; in [4], 6.6 µM.

Consider `Cc1ccc2[nH]c(=O)c(C3=NN(C(=O)CCC(=O)O)C(c4ccc(Br)cc4)C3)c(-c3ccccc3)c2c1` (stereo unspecified), for which the figures for the IC50 in [6] and in experiment [7] were 113 µM and 7 µM, respectively.

As for `O=C(O)c1ccc2cc(I)c3ccccc3c2c1`, the IC50 in experiment [7] and in experiment [8] was 50 µM throughout. Moreover, the concentration giving a half-maximal response (EC50) in [2] came out at 100 µM.

As for `O=C(O)c1cc2cc(-c3ccccc3)ccc2c(Br)c1O`, the IC50 in [5] worked out at 1.8 µM; in experiment [6], 2.4 µM; in experiment [7], 2 µM; in experiment [8] it was 2.4 µM.

Regarding `CC(C(O)c1ccc(O)cc1)N1CCC(Cc2ccccc2)CC1` (stereo unspecified) [IFENPRODIL], the IC50 in experiment [21] was found to be 39.5 µM; in [22], 29.1 µM; in [23], 75.9 µM.

With `Cc1sc2nc(COc3ccc(F)cc3)cc(=O)n2c1[C@@H]1C[C@@H]1CO`, the EC50 in experiment [2] turned out to be 8.5 µM.

Regarding `Cc1nccn1Cc1cc(-c2ccc(F)c(C(F)F)c2)cnn1` [EVT-101 FREE BASE], in experiment [6], the IC50 was 0.012 µM.

`CCN(Cc1cc(=O)n2c3c(sc2n1)CCC3)c1ccc(F)cc1`: the EC50 in experiment [24] was 2.43 µM.

As to `NCCCNCCCCNCCCN` [SPERMINE], the results for the EC50 in [3], in experiment [25] and in [26] were 127 µM, 81 µM and 125 µM, respectively.

Turning to `O=C(NNC(=O)c1ccc(CNS(=O)(=O)c2ccc(F)c(Cl)c2)cc1)c1ccccc1`, the IC50 in [27] is > 30 µM; in experiment [22] it was > 10 µM; in experiment [23] it was > 10 µM.
